Counter-ions that a name gives are not always drawn.

The target in one assay is MLLT1 (Homo sapiens, UniProt Q03111). Kind of assay: biochemical. To be noted: MLLT1 assay IC50 (nM), HTRF, 6His tagged MLLT1, biotinylated H3K9cro peptide; compound 20 μM to 20 nM, 11 data points in duplicate. In general terms: TR-FRET usually uses a lanthanide donor and a delayed reading to cut background.
In a further assay the target is MLLT3 (Homo sapiens, UniProt P42568). Kind of assay: HTRF IC50 determination assay, MLLT3 / H3K9cro peptide displacement. To be noted: MLLT3 assay IC50 (nM), 6His tagged MLLT3, biotinylated H3K9cro peptide, compound 20 μM to 20 nM, 11 data points in duplicate.
MLLT3, sequence (P42568 whole entry): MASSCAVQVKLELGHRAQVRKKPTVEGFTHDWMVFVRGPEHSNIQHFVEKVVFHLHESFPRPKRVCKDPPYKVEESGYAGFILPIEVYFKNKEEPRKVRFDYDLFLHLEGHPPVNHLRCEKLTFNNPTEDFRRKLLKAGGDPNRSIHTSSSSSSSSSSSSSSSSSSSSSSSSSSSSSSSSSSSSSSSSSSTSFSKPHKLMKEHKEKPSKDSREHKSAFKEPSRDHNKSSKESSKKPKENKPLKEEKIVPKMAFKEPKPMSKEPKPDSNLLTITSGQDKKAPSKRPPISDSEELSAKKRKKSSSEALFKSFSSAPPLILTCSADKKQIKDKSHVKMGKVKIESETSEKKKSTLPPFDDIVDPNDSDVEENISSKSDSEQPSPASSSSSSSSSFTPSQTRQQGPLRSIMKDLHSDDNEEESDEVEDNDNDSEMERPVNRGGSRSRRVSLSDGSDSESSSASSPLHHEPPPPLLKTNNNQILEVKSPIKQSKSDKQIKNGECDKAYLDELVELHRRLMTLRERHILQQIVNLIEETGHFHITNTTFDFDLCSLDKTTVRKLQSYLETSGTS

MLLT1, sequence (Q03111 whole entry): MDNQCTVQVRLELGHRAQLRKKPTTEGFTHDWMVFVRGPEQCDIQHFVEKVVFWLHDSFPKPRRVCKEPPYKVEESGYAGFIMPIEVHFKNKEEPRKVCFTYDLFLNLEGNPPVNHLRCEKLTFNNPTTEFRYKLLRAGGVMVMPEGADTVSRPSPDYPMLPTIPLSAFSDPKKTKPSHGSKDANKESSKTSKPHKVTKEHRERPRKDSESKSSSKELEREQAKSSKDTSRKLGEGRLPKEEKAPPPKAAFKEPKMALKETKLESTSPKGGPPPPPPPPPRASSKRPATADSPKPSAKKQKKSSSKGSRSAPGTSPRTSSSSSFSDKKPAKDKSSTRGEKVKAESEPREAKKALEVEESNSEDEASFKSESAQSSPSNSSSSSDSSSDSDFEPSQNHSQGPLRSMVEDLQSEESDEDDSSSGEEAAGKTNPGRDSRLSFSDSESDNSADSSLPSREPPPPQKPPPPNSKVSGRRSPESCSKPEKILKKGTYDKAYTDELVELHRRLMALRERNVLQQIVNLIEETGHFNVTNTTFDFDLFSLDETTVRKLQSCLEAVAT

As for `Cc1nn(C)c2cc(C(=O)Nc3cn4cc([C@@H]5CCCN5C)nc4cn3)ccc12` (single isomer, unassigned) [Example 69], the IC50 on MLLT1 and at MLLT3 was 1500 to 20000 nM each time.

Consider `Cc1nn(C)c2cc(C(=O)Nc3cn4cc(C5CC(C)(C)CN5C)nc4cn3)ccc12` (single isomer, unassigned) [Example 81], for which the IC50 on MLLT1 and at MLLT3 was 1500 to 20000 nM throughout.

For `Cc1nc(NC(=O)c2cc3c(C)nc(C)n3cc2F)cn2cc([C@H]3CCCN3C)nc12` [Example 94, 6-fluoro-1,3-dimethyl-N-{8-methyl-2-[(2R)-1-methylpyrrolidin-2-yl]imidazo[1,2-a]pyrazin-6-yl}imidazo[1,5-a]pyridine-7-carboxamide], the IC50 against MLLT1 and on MLLT3 was 150 to 1500 nM throughout.

For `Cc1nn(C)c2cc(C(=O)Nc3cn4cc([C@H]5CCCN5C)nc4cn3)ccc12` [Example 70, 1,3-dimethyl-N-{2-[(2R)-1-methylpyrrolidin-2-yl]imidazo[1,2-a]pyrazin-6-yl}-1H-indazole-6-carboxamide], the IC50 against MLLT1 and on MLLT3 was 150 to 1500 nM in each case.

For the molecule `COc1cc2c(cnn2C)cc1C(=O)Nc1cn2cc([C@H]3CCCN3C)nc2cn1` [Example 96, 6-methoxy-1-methyl-N-{2-[(2R)-1-methylpyrrolidin-2-yl]imidazo[1,2-a]pyrazin-6-yl}indazole-5-carboxamide], the 50% inhibitory concentration (IC50) lay within 150 to 1500 nM against MLLT1 and 1500 to 20000 nM at MLLT3.

With `CN1CCCC1c1cn2cc(NC(=O)c3ccc(-n4cccn4)nc3)ccc2n1` (racemic) [Example 13, rac-N-[2-(1-methylpyrrolidin-2-yl)imidazo[1,2-a]pyridin-6-yl]-6-(1H-pyrazol-1-yl)pyridine-3-carboxamide], the IC50 on MLLT1 and on MLLT3 was 1500 to 20000 nM each time.

As for `CN1CCCC1c1cn2cc(NC(=O)c3ccn4cnnc4c3)ccc2n1` (racemic) [Example 33, rac-N-[2-(1-methylpyrrolidin-2-yl)imidazo[1,2-a]pyridin-6-yl]-[1,2,4]triazolo[4,3-alpyridine-7-carboxamide], the IC50 lay in the range of 150 to 1500 nM against MLLT1 and 1500 to 20000 nM at MLLT3.

With `Cc1nc(NC(=O)c2cc3cnc(C)n3cc2F)cn2cc([C@H]3CCCN3C)nc12` [Example 93, 6-fluoro-3-methyl-N-{8-methyl-2-[(2R)-1-methylpyrrolidin-2-yl]imidazo[1,2-a]pyrazin-6-yl}imidazo[1,5-a]pyridine-7-carboxamide], the IC50 at MLLT1 and on MLLT3 was 150 to 1500 nM each time.

Consider `CN1CCCC1c1cn2cc(NC(=O)c3ccc4[nH]ccc4c3F)ccc2n1` (racemic) [Example 53, rac-4-fluoro-N-[2-(1-methylpyrrolidin-2-yl)imidazo[1,2-a]pyridin-6-yl]-1H-indole-5-carboxamide], for which the IC50 against MLLT1 and at MLLT3 was 150 to 1500 nM in each case.

With `CC1CCC(c2cn3cc(NC(=O)c4ccc5c(cnn5C)c4)ccc3n2)N1C` (racemic) [Example 63, rac-N-[2-(1,5-dimethylpyrrolidin-2-yl)imidazo[1,2-a]pyridin-6-yl]-1-methyl-1H-indazole-5-carboxamide], the IC50 against MLLT1 and at MLLT3 was 1500 to 20000 nM throughout.

As to `CN1CCCC1c1cn2cc(NC(=O)c3ccc4c(c3)c(C3CCNC3)nn4C)ccc2n1` (racemic) [Example 56, rac-1-methyl-N-(2-(1-methylpyrrolidin-2-yl)imidazo[1,2-a]pyridin-6-yl)-3-(pyrrolidin-3-yl)-1H-indazole-5-carboxamide formate], the IC50 on MLLT1 and on MLLT3 was 150 to 1500 nM throughout.

Consider `CN1CCCC1c1cn2cc(NC(=O)c3ccc(-c4ncon4)cc3)ccc2n1` (racemic) [Example 51, rac-N-[2-(1-methylpyrrolidin-2-yl)imidazo[1,2-a]pyridin-6-yl]-4-(1,2,4-oxadiazol-3-yl)benzamide], for which the IC50 on MLLT1 lay within 150 to 1500 nM; on MLLT3, 1500 to 20000 nM.

Turning to `Cc1nn(C)c2cc(C(=O)Nc3cn4cc(C5CC(C)(C)CN5C)nc4cn3)ccc12` (single isomer, unassigned) [Example 82], the IC50 against MLLT1 and at MLLT3 was less than 150 nM throughout.

As for `CN1CCC[C@@H]1c1cn2cc(NC(=O)c3cc4cnn(C)c4cn3)ncc2n1` [Example 95, 1-methyl-N-{2-[(2R)-1-methylpyrrolidin-2-yl]imidazo[1,2-a]pyrazin-6-yl}pyrazolo[3,4-c]pyridine-5-carboxamide], the IC50 against MLLT1 and on MLLT3 was 1500 to 20000 nM throughout.

On to `CN1CCCC1c1cn2cc(NC(=O)c3ccc4c(cnn4C)c3)ccc2n1` (single isomer, unassigned) [Example 59], for which the IC50 on MLLT1 and at MLLT3 was 1500 to 20000 nM each time.

On to `CN1CCCC1c1cn2cc(NC(=O)c3cnc4cc(Cl)ccc4c3)ccc2n1` (racemic) [Example 9, rac-7-chloro-N-[2-(1-methylpyrrolidin-2-yl)imidazo[1,2-a]pyridin-6-yl]quinoline-3-carboxamide], for which the IC50 on MLLT1 and on MLLT3 was 1500 to 20000 nM each time.

For `CCc1nn(C)c2cc(C(=O)Nc3cn4cc([C@H]5CCCN5C)nc4cn3)ccc12` [Example 72, 3-ethyl-1-methyl-N-{2-[(2R)-1-methylpyrrolidin-2-yl]imidazo[1,2-a]pyrazin-6-yl}-1H-indazole-6-carboxamide], the IC50 on MLLT1 and at MLLT3 was 150 to 1500 nM in each case.

For `CN1CCC[C@@H]1c1cn2cc(NC(=O)c3cc4cnn(C)c4cc3F)ncc2n1` [Example 101, 6-fluoro-1-methyl-N-[2-[(2R)-1-methylpyrrolidin-2-yl]imidazo[1,2-a]pyrazin-6-yl]indazole-5-carboxamide], the IC50 against MLLT1 is less than 150 nM; on MLLT3, 150 to 1500 nM.

As for `CN1CCCC1c1cn2cc(NC(=O)c3ccc4c(cnn4C)c3Cl)ccc2n1` (racemic) [Example 52, rac-4-chloro-1-methyl-N-[2-(1-methylpyrrolidin-2-yl)imidazo[1,2-a]pyridin-6-yl]-1H-indazole-5-carboxamide], the IC50 on MLLT1 is 1500 to 20000 nM; on MLLT3 it was greater than 20000 nM.

On to `Cc1nn(C)c2cc(C(=O)Nc3ccc4nc(C5CCCN5C)cn4c3)ccc12` (racemic) [Example 14, rac-1,3-dimethyl-N-[2-(1-methylpyrrolidin-2-yl)imidazo[1,2-a]pyridin-6-yl]-1H-indazole-6-carboxamide], for which the IC50 on MLLT1 and at MLLT3 was 150 to 1500 nM each time.

As for `Cc1nn(C)c2sc(C(=O)Nc3ccc4nc(C5CCCN5C)cn4c3)cc12` (racemic) [Example 18, rac-1,3-dimethyl-N-[2-(1-methylpyrrolidin-2-yl)imidazo[1,2-a]pyridin-6-yl]-1H-thieno[2,3-c]pyrazole-5-carboxamide], the IC50 against MLLT1 and on MLLT3 was 1500 to 20000 nM throughout.

`CN1CCCC1c1cn2cc(NC(=O)c3cc4ccncc4o3)ccc2n1` (racemic) [Example 54, rac-N-[2-(1-methylpyrrolidin-2-yl)imidazo[1,2-a]pyridin-6-yl]furo[2,3-c]pyridine-2-carboxamide]: the IC50 fell in the range of 150 to 1500 nM at MLLT1 and 1500 to 20000 nM on MLLT3.

In the case of `Cc1ncc(-c2ccc(C(=O)Nc3ccc4nc(C5CCCN5C)cn4c3)c(F)c2)s1` (single isomer, unassigned) [Example 25], the IC50 against MLLT1 and on MLLT3 was 150 to 1500 nM in each case.

Consider `Cc1nn(C)c2cc(C(=O)Nc3cn4cc([C@H]5CCCN5C)nc4c(C4CC4)n3)c(F)cc12` [Example 100, N-[8-cyclopropyl-2-[(2R)-1-methylpyrrolidin-2-yl]imidazo[1,2-a]pyrazin-6-yl]-5-fluoro-1,3-dimethyl-indazole-6-carboxamide], for which the IC50 on MLLT1 and on MLLT3 was 150 to 1500 nM each time.

Take `CN1CCCCC1c1cn2cc(NC(=O)c3ccc4c(cnn4C)c3)ccc2n1` (single isomer, unassigned) [Example 28]: the IC50 against MLLT1 and on MLLT3 was 150 to 1500 nM in each case.

`CN1CCCC1c1cn2cc(NC(=O)c3ccc4c(cnn4C)c3)ccc2n1` (single isomer, unassigned) [Example 60]: the IC50 against MLLT1 is less than 150 nM; on MLLT3, 150 to 1500 nM.

Consider `Cc1nn(C)c2cc(C(=O)Nc3ccc4nc(C5CCCN5C)cn4c3)c(F)cc12` (racemic) [Example 30, rac-5-fluoro-1,3-dimethyl-N-[2-(1-methylpyrrolidin-2-yl)imidazo[1,2-a]pyridin-6-yllindazole-6-carboxamide], for which the IC50 on MLLT1 and at MLLT3 was 150 to 1500 nM in each case.

On to `COc1ccc(-c2nc(C(=O)Nc3ccc4nc(C5CCCN5C)cn4c3)cs2)cc1` (racemic) [Example 38, rac-2-(4-methoxyphenyl)-N-[2-(1-methylpyrrolidin-2-yl)imidazo[1,2-a]pyridin-6-yl]-1,3-thiazole-4-carboxamide], for which the IC50 against MLLT1 and at MLLT3 was 1500 to 20000 nM throughout.

With `CCc1nnc2cc(C(=O)Nc3ccc4nc(C5CCCN5C)cn4c3)ccn12` (racemic) [Example 35, rac-3-ethyl-N-[2-(1-methylpyrrolidin-2-yl)imidazo[1,2-a]pyridin-6-yl]-[1,2,4]triazolo[4,3-a]pyridine-7-carboxamide formate], the IC50 against MLLT1 and at MLLT3 was 1500 to 20000 nM throughout.

Regarding `CN1CC2(CC2)C[C@@H]1c1cn2cc(NC(=O)c3ccc4c(cnn4C)c3)ncc2n1` [Example 102, 1-methyl-N-[2-[(6R)-5-methyl-5-azaspiro[2.4]heptan-6-yl]imidazo[1,2-a]pyrazin-6-yl]indazole-5-carboxamide], the figures for the IC50 at MLLT1 and on MLLT3 were less than 150 nM and 150 to 1500 nM, respectively.

Take `Cc1noc2nc(C(=O)Nc3ccc4nc(C5CCCN5C)cn4c3)ccc12` (racemic) [Example 50, rac-3-methyl-N-[2-(1-methylpyrrolidin-2-yl)imidazo[1,2-a]pyridin-6-yl]-[1,2]oxazolo[5,4-b]pyridine-6-carboxamide]: the IC50 on MLLT1 and on MLLT3 was 1500 to 20000 nM in each case.

For orientation: IC50 means the concentration that gives 50% inhibition.

For the origin of these results see patent publication US20260216196A1, “IMIDAZO[1,2-A]PYRIDINE AND IMIDAZO[1,2-A]PYRAZINE DERIVATIVES AS MLLT1 AND MLLT3 INHIBITORS” (DARK BLUE THERAPEUTICS LTD., priority 2022, published 2026).
